Laboratory results reported in patent US10010576B2, “Method of treatment” (Hexima Limited, priority 2014, dated 2018).

Columns and labels:
Microsporum fulvum = assay: Antifungal growth inhibition assay in 96 well microtitre plates (A595); assay type: cell-based
Protocol: (§1) The inhibitory effects of the plant defensins on the growth of Trichophyton rubrum, T. interdigitale, Microsporum fulvum and C. albicans (obtained from the National Mycology Reference Centre, South Australia Pathology at the Women's and Children's Hospital, Adelaide, Australia) are measured essentially as described by Broekaert et al. (1990) FEMS Microbiol Lett 69:55-59. Spores of T. rubrum, T. interdigitale and M. fulvum are isolated from sporulating fungus growing on 1⁄2 strength Sabouraud dextrose agar (SDA). Spores were removed from the plates by the addition of 1⁄2 strength potato dextrose broth (PDB). C. albicans cells are grown in Yeast Peptone Broth (YPD) for 16 h. Spore and cell concentrations are measured using a hemocytometer. Antifungal assays are conducted in 96 well microtitre plates essentially as herein described. Wells are loaded with 20 μm L of filter sterilized (0.22 μm syringe filter, Millipore) defensin (10× stock for each final concentration) or water and 80 μm L of 5×10^4 spores/mL (T. rubrum, T. interdigitale, M. fulvum) or 5,000 cells/mL (C. albicans) in 1⁄2 strength PDB. The plates are incubated at 30° C. Fungal growth is assayed by measuring optical density at 595 nm ([…]) using a microtitre plate reader (SpectraMax Pro M2; Molecular Devices. Growth is allowed to proceed until the optical density (OD) of the fungus in the absence of any test defensin reached an OD of 0.2. Each test is performed in duplicate.

Trichophyton rubrum [1] = assay: as above; assay type: cell-based
Protocol: as §1

T. interdigitale = assay: as above; assay type: cell-based, Trichophyton interdigitale
Protocol: as §1

C. albicans = assay: as above; assay type: cell-based, Candida albicans
Protocol: as §1

[2] = test system: Trichophyton rubrum, T. interdigitale, Microsporum fulvum and C. albicans; assay: Inhibition assays, summary across the range of fungal pathogens; assay type: cell-based; settings: summary of Table 3
Protocol: as §1

[3] = Penetration through human nails (nail adapter, wetted cotton bud receptor, RP-HPLC); assay type: in vitro ADME
Protocol: Penetration of NaD1 through human nails was measured according to the method of Hui et al. (2002) J Pharm Sci 91(1):189-195. Human toenails were obtained from ScienceCare (USA) and washed with phosphate buffered saline (details, PBS) before being placed on a kimwipe that had been soaked in PBS for 3 h to rehydrate the nail. […]
The cotton bud in contact with the underside of the nail was removed after 24 h and every 24 h following. Protein that had passed through the nail was recovered from the cotton bud by washing twice with 500 μL of 0.1% v/v trifluoroacetic acid. Recovered protein was quantified using RP-HPLC.

Escherichia coli = assay: Inhibition of the growth of Escherichia coli; assay type: cell-based; settings: 0.1625 μM to 10 μM, 18 hours at 37° C., OD595
Protocol: A single E. coli colony was used to inoculate 5 ml of Luria-Bertani media and grown overnight at 37° C. The following day, the optical density of the culture was measured and the E. coli diluted to an optical density at 600 nm (OD600) of 0.01 in Mueller-Hinton Broth. Diluted E. coli were added to 96-well plates with defensins at concentrations of 10 μM, 5 μM, 2.5 μM, 1.25 μM, 0.625 μM, 0.3125 μM or 0.1625 μM. Plates were read at OD595 to obtain time zero data points. Plates were incubated at 37° C. for 18 hours before reading again at OD595 to assess the amount of E. coli growth.

[4] = test system: Human monocytic lymphoma (U937) cells; assay type: cell-based
Protocol: Human monocytic lymphoma (U937) cells are cultured in RPMI-1640 medium. All culture media are supplemented with 5-10% v/v fetal calf serum, 100 U/ml of penicillin, and 100 μg/ml of streptomycin. Cell lines are cultured at 37° C. in a humidified atmosphere containing 5% v/v CO2. Adherent cell lines are detached from the flask by adding a mixture containing 0.25% v/v trypsin and […] EDTA. A flow cytometry-based propidium iodide (PI) uptake assay is performed to analyze the ability of plant defensins to permeabilize U937 cells (essentially as described in Poon et al, 2014). Briefly, cells are suspended to 1×10^6 cells/ml in 0.1% v/v BSA/RPMI-1640 and incubated with plant defensins (10 μM) at 37° C. for 30 min Samples are added to PBS containing a final concentration of 1 μg/ml PI and placed on ice. Samples are then analyzed immediately using the BD FACSCanto II Flow Cytometer and BD FACSDiva software v6.1.1. The resultant flow cytometry data is analyzed using FlowJo software v8.8.6. Cells are gated appropriately based on forward scatter and side scatter and cell permeabilization is defined by PI-positive staining.

[5] = test system: clinical isolates of T. rubrum; assay: Cell survival assay for clinical isolates of T. rubrum (plating after incubation); assay type: cell-based, Trichophyton rubrum; settings: incubated with 100 µg/mL HXL008 for 72 h, plated on Sabouraud dextrose agar, 5 days at 30° C.
Protocol: After incubation for 72 h, the media from wells containing clinical isolates of T. rubrum incubated with 100 […] HXL008 was plated onto fresh Sabouraud dextrose agar. Plates were incubated at 30° C. for 5 days to allow colonies to develop before being photographed.

Trichophyton rubrum [6] = assay: Inhibition of the growth of Trichophyton rubrum over 28 days; assay type: cell-based
Protocol: The inhibitory effect of HXL008 on the growth of Trichophyton rubrum (obtained from the National Mycology Reference Centre, South Australia Pathology at the Women's and Children's Hospital, Adelaide, Australia) was monitored over 28 days.
Spores of T. rubrum, are isolated from sporulating fungus growing on ½ strength Sabouraud dextrose agar. Spores are removed from the plates by the addition of ½ strength potato dextrose broth (PDB). Spore and cell concentrations are measured using a hemocytometer.
Spores were diluted to a concentration of 5×10^4 spores/mL in ½ PBD (2 mL) containing 0, 10 or 50 μg/mL HXL008. Cultures are incubated at 30 C without shaking. After 24 h, 100 μL of each culture is extracted and plated onto ½ SDA plates. An additional 100 uL of ½ PDB is then added containing either 0, 20 or 100 μg of HXL008. SDA plates are then incubated at 30 C for 5 days. This process is repeated every 24 h for 28 days. After 15 days, the culture containing no HXL008 becomes too thick to pipette and is no longer used in the assay.

HXL004: Class I plant defensin from Nicotiana benthamiana, SEQ ID NO:7 (Table 1) (RTCESQSHRFKGLCFSRSNCASVCHTEGFNGGHCRGFRRRCFCTRHC; HXL004 Nicotiana benthamiana)
IC50 against M. fulvum (Microsporum fulvum): 12 µg/mL
IC50 against T. rubrum (Trichophyton rubrum [1]): 27.5 µg/mL
IC50 against T. interdigitale (T. interdigitale): 19 µg/mL
IC50 against C. albicans (C. albicans): 20 µg/mL
Antifungal activity across the range of fungal pathogens [2]: intermediate activity
Nail penetration [3]: able to penetrate nails faster and more effectively than the active ingredients of current topical onychomycosis therapies
Inhibition of growth of E. coli (Escherichia coli): inhibited the growth of E. coli in a concentration dependent manner
Cells permeabilized (PI-positive) [4]: 13%

HXL008: Class I plant defensin from Picramnia pentandra, SEQ ID NO:1 (KVCTKPSKFFKGLCGTDGACTTACRKEGLHSGYCQLKGFLNSVCVCRKHC; HXL008 Picramnia pentandra)
IC50 against M. fulvum (Microsporum fulvum): 7 µg/mL
IC50 against T. rubrum (Trichophyton rubrum [1]): 3 µg/mL
IC50 against T. interdigitale (T. interdigitale): 3.5 µg/mL
IC50 against C. albicans (C. albicans): 20 µg/mL
Antifungal activity across the range of fungal pathogens [2]: the most effective plant defensins across the range of fungal pathogens
Surviving colonies on agar plates [5]: 1-3 colonies
Visible growth of T. rubrum in culture (Trichophyton rubrum [6]; 10 μg/mL or 50 μg/mL, over the duration of the assay (28 days)): did not display any visible growth
T. rubrum cells killed (Trichophyton rubrum [6]; 50 μg/mL, within 24 h): more than 80%
T. rubrum cells dead (Trichophyton rubrum [6]; after 20 days of treatment): more than 99.5%
Surviving colonies per plate (Trichophyton rubrum [6]; after 20 days of treatment, 100 μL of culture plated): ≤ 1 colony
Nail penetration [3]: able to penetrate nails faster and more effectively than the active ingredients of current topical onychomycosis therapies
Inhibition of growth of E. coli (Escherichia coli): did not inhibit growth of E. coli at the concentrations tested
Cells permeabilized (PI-positive) [4]: less than 2%

HXL012: Class I plant defensin from Amaranthus retroflexus, SEQ ID NO:10 (RMCKAPSKLFRGMCGIRDSNCDSVCRAEGMAAGDCHGLRRRCICSRPC; HXL012 Amaranthus retroflexus)
IC50 against M. fulvum (Microsporum fulvum): 18 µg/mL
IC50 against T. rubrum (Trichophyton rubrum [1]): 2 µg/mL
IC50 against T. interdigitale (T. interdigitale): 2 µg/mL
IC50 against C. albicans (C. albicans): 42 µg/mL
Antifungal activity across the range of fungal pathogens [2]: intermediate activity
Nail penetration [3]: did not penetrate the nail
Cells permeabilized (PI-positive) [4]: less than 2%

LL37: human antimicrobial peptide used as a control (LLGDFFRKSKEKIGKEFKRIVQRIKDFLRNLVPRTES; Antibacterial peptide LL-37; UniProt P49913 134-170, looked up) [reference compound]
Inhibition of growth of E. coli (Escherichia coli): inhibited the growth of E. coli in a concentration dependent manner

NaD1: Solanaceous Class II plant defensin from Nicotiana alata, SEQ ID NO:18 (RECKTESNTFPGICITKPPCRKACISEKFTDGHCSKILRRCLCTKPC; NaD1 Nicotiana alata)
IC50 against M. fulvum (Microsporum fulvum): 5.3 µg/mL
IC50 against T. rubrum (Trichophyton rubrum [1]): 8 µg/mL
IC50 against T. interdigitale (T. interdigitale): 10 µg/mL
IC50 against C. albicans (C. albicans): 20 µg/mL
Nail penetration [3]: able to penetrate nails faster and more effectively than the active ingredients of current topical onychomycosis therapies
Inhibition of growth of E. coli (Escherichia coli): did not inhibit growth of E. coli at the concentrations tested
Cells permeabilized (PI-positive) [4]: 33%
